Source: PMC3605511, “Tumor P-Glycoprotein Correlates with Efficacy of PF-3758309 in in vitro and in vivo Models of Colorectal Cancer” (Frontiers in Pharmacology, 2013)

Assays:
SW48 cell line xenograft = test: CRC cell line xenograft efficacy, SW48; type: in vivo, mice; conditions: 25 mg/kg orally twice daily, 14–28 days, end of study tumor volumes
Experimental: For cell line xenografts, CRC cells were harvested in exponential phase growth and resuspended in a 1:1 mixture of serum-free RPMI 1640 and Matrigel (BD Biosciences). Five to ten million cells per mouse were injected subcutaneously into the flank using a 23-gauge needle. Mice were monitored daily for signs of toxicity and were weighed twice weekly. Tumor size was evaluated twice per week by caliper measurements using the following formula: tumor volume = length × width^2 × 0.52. When tumors reached 200–300 mm^3 mice were randomized into two groups with at least 10 tumors per group. Mice were then treated for 14–28 days (until control tumor volume reach ∼1500 mm^3) with either vehicle control (0.5% methylcellulose), or PF-3758309 (25 mg/kg) twice daily by oral gavage.
Human tumor xenograft models were used to evaluate the efficacy of PF-309 in vivo. Eleven different CRC cell line tumor xenografts were treated with 25 mg/kg PF-309 twice daily by oral gavage for 14–28 days (until control tumor volumes reached ∼1500 mm^3). Tumor volumes were measured throughout the study and the % growth inhibition was calculated from the average end of study tumor volumes by:
% Growth Inhibition= (average control volume−average treated volume)/average control volume×100%

[1] = MDCKII-LE permeability assay; type: in vitro ADME; conditions: dog, MDCK; MDCKII-LE cells, mean of two replicates
Experimental: (§1) Permeability and transporter substrate assays were performed as previously published (Feng et al., [2008]; Callegari et al., [2011]; Di et al., [2011]). Permeability assays were conducted in MDCKII-LE cells, which were generated by isolation of a subpopulation of cells with low expression of endogenous P-gp (Feng et al., [2008]; Callegari et al., [2011]; Di et al., [2011]). The use of MDCKII-LE cells are used to measure the passive permeability of compounds in place of MDCK wild-type or Caco-2 cells since both MDCK wild-type and Caco-2 cells are known to have some level of endogenous transporter expression which can affect the permeability measurement. P-gp efflux was determined in MDR1-MDCK cells and BCRP efflux was measured in BCRP-MDCKII-LE cells.
(§2) MDCKII-LE, MDR1-MDCK, and BCRP-MDCKII-LE transwell assays were performed to determine the permeability and transporter efflux of PF-309 in vitro (Table 1). The permeability of PF-309 was determined to be 0.9 × 10^−6 cm/s in MDCKII-LE cells (mean of two replicates is presented). As previously described (Feng et al., [2008]), in MDCKII-LE cells a compound with a donor to receiver (A → B) flux of <5 × 10^−6 cm/s is classified as having low permeability. Compounds with A → B flux of 5–15 × 10^−6 cm/s are classified as moderately permeable and compounds >15 × 10^−6cm/s are considered to be highly permeable.

MDCKII-LE cells = test: MDCKII-LE permeability assay; type: in vitro ADME; conditions: MDCKII-LE; A → B <5 × 10^−6 cm/s low, 5–15 moderate, >15 high
Experimental: as §1, §2

BCRP = molecular target: T1, BCRP (Homo sapiens, UniProt Q9UNQ0); test: BCRP-MDCKII-LE transwell assay (BCRP efflux); type: in vitro ADME; parameters: A → B: scale not given here
T1 construct: expressed in transfected cells; host or cells: BCRP-MDCKII-LE cells (canine MDCKII subpopulation with low endogenous P-gp)
Experimental: as §1
MDR1-MDCK and BCRP-MDCKII-LE transwell assays measure the effect of P-gp and BCRP, respectively, on transcellular flux. The efflux ratio, ratio of the B → A flux to the A → B flux, of PF-309 was measured to be 34.9 ± 7.9 in the MDR1-MDCK assay, indicating it is a strong substrate for P-gp. PF-309 was also determined to be substrate for BCRP as the efflux ratio was measured to be 7.6 ± 1.1. As a reference, compounds with efflux ratios >2 are considered to be substrates (Callegari et al., [2011]).

NCIH508 = test: Cell proliferation assay, NCIH508; type: cell-based; conditions: Homo sapiens, NCI-H508; NCIH508, 72 h, SRB assay
Experimental: (§3) Cytotoxic/proliferation effects were determined using the sulforhodamine B (SRB) assay (Skehan et al., [1990]) or by resazurin. Briefly, cells in logarithmic growth phase were transferred to 96 well flat bottom plates with lids. One-hundred microliter cell suspensions containing 1500–5000 viable cells were plated into each well and incubated overnight prior to exposure with increasing concentrations of PF-309 for 3–5 days, dependent upon cell type. Media was removed and cells were fixed with cold 10% trichloroacetic acid for 30 min at 4°C. Cells were then washed with water and stained with 0.4% SRB (Fisher Sci., Pittsburgh, PA, USA) for 30 min at room temperature, washed again with 1% acetic acid, followed by stain solubilization with 10 mM tris at room temperature. The plate was then read on a plate reader (Biotek Synergy 2, Winooski, VT, USA) set at an absorbance wavelength of 565 nm. Cell proliferation curves were derived from the raw absorbance (OD) data.
Since PF-309 appeared to be a strong P-gp and BCRP substrates, we sought to evaluate if the transporters influenced sensitivity in vitro. We evaluated the sensitivity of CRC cell lines to PF-309 treatment in a panel of 27 lines. Cells were exposed to PF-309 at a range of concentrations for 72 h and cell content measured by SRB assay (see Pitts et al., [2013]). […]

DLD1 Scr = test: Proliferation, control shRNA, DLD1 Scr; type: cell-based; conditions: Homo sapiens, DLD-1; DLD1 Scr:50, control shRNA
Experimental: as §3
The pGIPZ Pgp-specific shRNA expression cassettes, along with control shRNA plasmids including the original pGIPZ vector were purchased from Open Biosystems (Birmingham, AL, USA). […] Successful knockdown of specific genes and gene products was confirmed by semi-quantitative RT-PCR and immunoblotting with specific antibodies. […]

T1 sequence (Q9UNQ0 whole entry): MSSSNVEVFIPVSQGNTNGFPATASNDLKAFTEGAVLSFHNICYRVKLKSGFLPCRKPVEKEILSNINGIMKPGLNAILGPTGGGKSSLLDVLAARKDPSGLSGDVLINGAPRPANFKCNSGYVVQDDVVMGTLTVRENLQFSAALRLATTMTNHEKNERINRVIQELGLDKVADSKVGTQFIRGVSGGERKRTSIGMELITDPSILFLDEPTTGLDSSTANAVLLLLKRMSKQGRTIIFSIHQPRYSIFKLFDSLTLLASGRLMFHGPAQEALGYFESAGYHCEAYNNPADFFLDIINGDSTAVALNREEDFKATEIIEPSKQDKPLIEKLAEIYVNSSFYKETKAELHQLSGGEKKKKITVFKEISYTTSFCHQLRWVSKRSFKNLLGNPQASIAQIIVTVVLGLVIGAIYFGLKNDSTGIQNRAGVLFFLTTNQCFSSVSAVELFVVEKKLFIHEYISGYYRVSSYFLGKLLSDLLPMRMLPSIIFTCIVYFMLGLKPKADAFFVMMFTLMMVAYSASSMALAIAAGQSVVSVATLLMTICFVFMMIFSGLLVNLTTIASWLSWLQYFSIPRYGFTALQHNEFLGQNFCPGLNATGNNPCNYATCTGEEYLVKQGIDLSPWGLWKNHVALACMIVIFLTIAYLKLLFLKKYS

Papp A→B [1]: 0.9 ×10⁻⁶ cm/s
permeability classification (MDCKII-LE cells): poorly permeable
efflux ratio (BCRP; dog, ratio of B → A flux to A → B flux, >2 = substrate): 7.6
A → B (BCRP; transwell flux): ;1.4 ± 0.1 cm/s
IC50 (DLD1 Scr): 103 nM
Compound: Cc1nc(Nc2n[nH]c3c2CN(C(=O)N[C@H](CN(C)C)c2ccccc2)C3(C)C)c2sccc2n1 [PF-309]
% Growth inhibition (SW48 cell line xenograft): 45%
IC50 (NCIH508): > 1000 nM
